From US10947234B2, “PRMT5 inhibitors” (Merck Sharp & Dohme Corp., priority 2017, dated 2021)
Where two headings read alike, the source gives them in different places.

Tests used:
[1] = biological target: Full-length (FL)-PRMT5-MEP50 enzyme complex (Homo sapiens (Human), UniProt O14744); assay: PRMT5-MEP50 Enzyme Methylation Assay; assay type: biochemical; conditions: biotinylated H4R3(Me1) peptide, 15 μM SAM, top compound concentration 100000 nM
Description: PRMT5-MEP50 Enzyme Methylation Assay
PRMT5/MEP50 biochemical assay is a direct measurement of the methylation activity of the enzyme complex on a short peptide substrate derived from the N-terminus of H4 histone. Methylation experiment is performed with recombinant protein. The assessment of inhibitory effect (IC50) of small molecules is measured by the effectiveness of the compounds to inhibit this reaction.
To each well of a white ProxiPlus 384 well-plate, 100 nL of compound (1% DMSO in final assay volume of 10 μL) was dispensed, followed by the addition of 8 μL of 1× assay buffer (50 mM Bicine pH 8.0, 1 mM DTT, 0.004% Tween20, 0.01% BSA) containing 0.5 nM of Full-length (FL)-PRMT5-MEP50 enzyme complex (recombinant proteins from baculovirus-transfected Sf21 cells: FL-PRMT5; MW=[…] and FL-MEP50; MW=38614). Plates were sealed and placed in a 37° C. humidified chamber for 30 minutes pre-incubation with compounds. Subsequently, each reaction was initiated by the addition of 2 μL 1× assay buffer containing 75 nM biotinylated H4R3(Me1) peptide, and 15 μM S-(5′-Adenosyl)-L-Methionine Chloride (SAM). The final reaction in each well of 10 μL consists of 0.5 nM PRMT5-MEP50, 75 nM biotinylated-peptide, and 15 μM. Methylation reactions were allowed to proceed for 150 minutes in a sealed plate at 37° C. Reactions were immediately quenched by the addition of 1 μL of 10% formic acid. Plates were then frozen and shipped to SAMDI™ Tech Inc. to determine the percent conversion from […]. IC50 values were determined by 7 parameters biphasic fit model plotting the percent product conversion vs. (Log10) compound concentrations.

PRMT5 = PRMT5 (Homo sapiens (Human), UniProt O14744); assay: PRMT5 Cell Target Engagement (TE) Assay; assay type: cell-based; conditions: MCF-7 cells, 3 days treatment, nuclear SDMA by high content imaging; top compound concentration 10000 nM
Sequence of PRMT5 (O14744 whole entry): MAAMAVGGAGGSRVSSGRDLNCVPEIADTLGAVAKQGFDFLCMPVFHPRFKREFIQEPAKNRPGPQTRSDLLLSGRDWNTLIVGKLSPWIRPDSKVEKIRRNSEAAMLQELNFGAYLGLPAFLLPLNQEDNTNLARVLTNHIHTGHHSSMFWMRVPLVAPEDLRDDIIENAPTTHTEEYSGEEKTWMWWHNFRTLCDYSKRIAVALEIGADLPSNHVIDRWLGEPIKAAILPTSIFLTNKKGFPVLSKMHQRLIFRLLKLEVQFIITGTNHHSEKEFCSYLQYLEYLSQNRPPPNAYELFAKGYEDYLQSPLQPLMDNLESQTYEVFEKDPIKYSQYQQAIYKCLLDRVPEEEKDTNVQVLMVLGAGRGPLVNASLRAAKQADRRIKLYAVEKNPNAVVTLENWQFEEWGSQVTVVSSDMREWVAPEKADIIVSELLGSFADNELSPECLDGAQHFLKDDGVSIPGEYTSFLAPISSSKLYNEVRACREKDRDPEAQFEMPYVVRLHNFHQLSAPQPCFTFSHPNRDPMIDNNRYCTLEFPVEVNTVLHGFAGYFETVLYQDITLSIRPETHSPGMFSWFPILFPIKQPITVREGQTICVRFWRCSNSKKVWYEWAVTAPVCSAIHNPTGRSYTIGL
Sequence of PRMT5 (Q9BQA1 whole entry partner): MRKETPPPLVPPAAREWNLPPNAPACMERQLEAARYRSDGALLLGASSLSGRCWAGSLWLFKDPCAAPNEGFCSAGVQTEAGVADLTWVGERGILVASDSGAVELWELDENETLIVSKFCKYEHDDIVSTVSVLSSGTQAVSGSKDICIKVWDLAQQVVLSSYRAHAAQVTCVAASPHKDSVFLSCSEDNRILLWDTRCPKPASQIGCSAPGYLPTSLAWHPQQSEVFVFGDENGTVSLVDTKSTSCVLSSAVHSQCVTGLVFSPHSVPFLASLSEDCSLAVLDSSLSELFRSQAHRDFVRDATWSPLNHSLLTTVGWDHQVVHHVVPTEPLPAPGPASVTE
Text: PRMT5 Cell Target Engagement (TE) Assay
The PRMT5 TE assay is a biomarker assay for identifying compounds that inhibit symmetric dimethylation of arginine (SDMA) of PRMT5 substrates. This assay detects symmetrically dimethylated nuclear proteins using high content imaging technology. Detection of the expression of symmetrically dimethylated nucleo proteins is through a mixture of primary rabbit monoclonal antibodies to SDMA (CST 13222), which in turn recognized by an Alexafluor 488 dye-conjugated anti-rabbit IgG secondary antibody. The IN Cell Analyzer 2200 measures nuclear Alexafluor 488 fluorescent dye intensity that is directly related to the level of expression of symmetrically dimethylated nuclear proteins at the single cell level. Nuclear AF488 dye intensities are compared to the mean value for DMSO treated cells […] to report percent of inhibition for each compound-treated well.
Each well of a BD falcon collagen coated black/clear bottom 384-well plate was seeded with 4000 MCF-7 cells and allowed to attach for 5 hours. Media from cell plate was removed at 0.5 mm above the bottom of the plate and replaced with 30 μL of fresh media containing 1.2× compounds in 0.1% DMSO. Cells were treated for 3 days in 37° C. CO2 incubator. On day 3, cells were fixed with Cytofix, permeablized with 0.4% Triton-X-100/Cytofix, and washed with D-PBS without Ca/Mg. Cells were blocked with Licor Odessey blocking reagent for one hour at room temperature, followed by incubation with anti-SDMA (1:1000) antibody at 4° C. overnight. 1° antibody was removed, followed by three washings with DPBS without Ca/Mg and 0.05% Tween20. Hoechst (5 μg/ml), Cell Mask deep stain (1:2000) and Alexa488-conjugated goat anti-rabbit IgG (2 μg/mL) was added for 1 hour at room temperature. A final washing step (three washes) was performed before sealing plate for imaging on In Cell Analyzer 2200. Images from analyzer were uploaded to Columbus (at WP) for image analysis. IC50 values were determined by 4 parameters robust fit of percent fluorescence units vs. (Log10) compound concentrations.

[2] = first IC50 of 7 parameters biphasic fit, read-out: Enzyme Methylation Assay IC50_1
[3] = second IC50 of 7 parameters biphasic fit, read-out: Enzyme Methylation Assay IC50_2

Sequence of Full-length (FL)-PRMT5-MEP50 enzyme complex (O14744 whole entry): as the sequence (O14744 whole entry) above
Sequence of Full-length (FL)-PRMT5-MEP50 enzyme complex (Q9BQA1 whole entry partner): as the sequence (Q9BQA1 whole entry partner) above

| Structure (SMILES) | IC50 [1, 2] [µM] | IC50 [1, 3] [µM] | EC50 (PRMT5) [µM] |
| --- | --- | --- | --- |
| CC[C@H]1CN(C[C@@H](O)[C@@H]2Cc3ccccc3CN2)C(=O)c2cc(Cl)ncc21 (single isomer, unassigned) [Example 1] | 5.19 | ≥ 100 | ≥ 10 |
| CC[C@H]1CN(C[C@@H](O)[C@@H]2Cc3ccccc3CN2)C(=O)c2cc(Cl)ncc21 (single isomer, unassigned) [Example 2] | 3.83 | ≥ 100 | ≥ 10 |
| CC[C@H]1CN(C[C@@H](O)[C@@H]2Cc3ccccc3CN2)C(=O)c2cc(Cl)ncc21 (single isomer, unassigned) [Example 3] | 28.3 | ≥ 100 | ≥ 10 |
| CC[C@H]1CN(C[C@@H](O)[C@@H]2Cc3ccccc3CN2)C(=O)c2cc(Cl)ncc21 (single isomer, unassigned) [Example 4] | 42.9 | ≥ 100 | ≥ 10 |
| CC[C@H]1CN(C[C@@H](O)[C@@H]2Cc3ccccc3CN2)C(=O)c2cc(NC3CCN(C(C)=O)CC3)ncc21 (single isomer, unassigned) [Example 7] | 0.00715 | 4.99 | 0.682 |
| CC[C@H]1CN(C[C@@H](O)[C@@H]2Cc3ccccc3CN2)C(=O)c2cc(NC3CCN(C(C)=O)CC3)ncc21 (single isomer, unassigned) [Example 8] | 0.0968 | 29.1 | 3.24 |
| CC[C@H]1CN(C[C@@H](O)[C@@H]2Cc3ccccc3CN2)C(=O)c2cc(NC3CCN(C(C)=O)CC3)ncc21 (single isomer, unassigned) [Example 9] | 0.00108 | 1.18 | 0.103 |
| CC[C@H]1CN(C[C@@H](O)[C@@H]2Cc3ccccc3CN2)C(=O)c2cc(NC3CCN(C(C)=O)CC3)ncc21 (single isomer, unassigned) [Example 10] | 0.272 | 64.5 | ≥ 10 |
| CC(=O)N1CCC(Nc2cc3c(cn2)C(C)(C)CN(C[C@@H](O)[C@@H]2Cc4ccccc4CN2)C3=O)CC1 (single isomer, unassigned) [Example 11] | 0.0569 | 9.23 | 3.89 |
| CC(=O)N1CCC(Nc2cc3c(cn2)C(C)(C)CN(C[C@@H](O)[C@@H]2Cc4ccccc4CN2)C3=O)CC1 (single isomer, unassigned) [Example 12] | 0.00153 | 0.631 | 0.102 |
